{"source": "patent US10105357B2", "about": "“Indication of antibiotic drugs for preparation of cancer inhibition pharmaceutical composition” (LAUNX BIOMEDICAL CO., LTD., priority 2014, dated 2018)", "assay_type_in_all_cases": "cell-based, human", "key": {"cancer cell lines": {"test_system": "cancer cell lines", "assay": "Cell viability analysis (WST-1) on cancer cell lines", "conditions": "drug 10 μM, 72 hours, WST-1; Table 3"}, "[1]": {"test_system": "MCF7 (Mammary Gland, Adenocarcinoma)", "assay": "Cell viability analysis, breast cancer MCF7", "conditions": "Homo sapiens, MCF7, 72 h"}, "[2]": {"test_system": "A375 (Amelanotic Melanoma)", "assay": "Cell viability analysis, skin cancer A375", "conditions": "Homo sapiens, A-375, 72 h"}, "[3]": {"test_system": "LoVo (Colorectal Adenocarcinoma)", "assay": "Cell viability analysis, colon cancer LoVo", "conditions": "Homo sapiens, LoVo, 72 h, read-out: cell viability (survival rate), LoVo, drug 10 μM, 72 hours, WST-1, OD450 nm"}, "[4]": {"test_system": "A549 (Lung Adenocarcinoma)", "assay": "Cell viability analysis, lung cancer A549", "conditions": "Homo sapiens, A549, 72 h"}, "[5]": {"test_system": "AGS (Gastric Adenocarcinoma)", "assay": "Cell viability analysis, gastric cancer AGS", "conditions": "Homo sapiens, 72 h"}, "[6]": {"test_system": "HI650 (Lung Adenocarcinoma)", "assay": "Cell viability analysis, lung cancer HI650", "conditions": "Homo sapiens, NCI-H1650, 72 h"}, "[7]": {"test_system": "HeLa (Cervix Adenocarcinoma)", "assay": "Cell viability analysis, cervical cancer HeLa", "conditions": "Homo sapiens, HeLa, 72 h"}, "[8]": {"test_system": "HepG2 (Hepatocellular Carcinoma)", "assay": "Cell viability analysis, hepatic cancer HepG2", "conditions": "Homo sapiens, HepG2, 72 h"}, "[9]": {"test_system": "HL-60 (Acute Promyelocytic Leukemia)", "assay": "Cell viability analysis, leukemia HL-60", "conditions": "Homo sapiens, HL-60, 72 h"}, "[10]": {"test_system": "PC3 (p53−) (Prostate Adenocarcinoma)", "assay": "Cell viability analysis, prostate cancer PC3", "conditions": "Homo sapiens, 72 h"}, "[11]": {"test_system": "TSGH-8301 (Urinary Bladder Carcinoma)", "assay": "Cell viability analysis, bladder cancer TSGH-8301", "conditions": "Homo sapiens, 72 h"}, "[12]": {"test_system": "MKN-45 (Gastric Adenocarcinoma)", "assay": "Cell viability analysis, gastric cancer MKN-45", "conditions": "Homo sapiens, MKN-45, 72 h"}}, "note": "Structures can show the parent of a compound that is named as a salt. Where two headings read alike, the source gives them in different places.", "data": [{"molecule": "CCn1cc(C(=O)O)c(=O)c2cc(F)c(N3CCNC(C)C3)c(F)c21", "note": "(centres unmarked) [Lomefloxacin hydrochloride (Maxaquin), Lomefloxacin hydrochloride]", "values": [{"measurement": "inhibition effect on different cancer cell lines", "setting": "cancer cell lines", "result": "significant inhibition effect"}]}, {"molecule": "Teicoplanin", "values": [{"measurement": "inhibition effect on different cancer cell lines", "setting": "cancer cell lines", "result": "significant inhibition effect"}]}, {"molecule": "CCCCCCCCCCCCCCCC(=O)O[C@@H]1[C@@H](O)[C@@H](O)[C@@H]([C@H](NC(=O)[C@@H]2C[C@@H](CCC)CN2C)[C@H](C)Cl)O[C@@H]1SC.Cl", "note": "[Clindamycin palmitate HCl]", "values": [{"measurement": "inhibition effect on different cancer cell lines", "setting": "cancer cell lines", "result": "significant inhibition effect"}]}, {"molecule": "NNC(=O)c1ccncc1.Nc1ccc(C(=O)O)c(O)c1", "note": "[Pasiniazid]", "values": [{"measurement": "inhibition effect on different cancer cell lines", "setting": "cancer cell lines", "result": "significant inhibition effect"}]}, {"molecule": "CCn1cc(C(=O)O)c(=O)c2cc(F)c(N3CCN(C)CC3)cc21", "note": "[Pefloxacin mesylate]", "values": [{"measurement": "inhibition effect on different cancer cell lines", "setting": "cancer cell lines", "result": "significant inhibition effect"}]}, {"molecule": "Clc1ccc(CSC(Cn2ccnc2)c2ccc(Cl)cc2Cl)cc1", "note": "(centres unmarked) [Sulconazole Nitrate]", "values": [{"measurement": "viability at 10 µM", "setting": "[1]; read-out: cell viability (survival rate), MCF7, drug 10 μM, 72 hours, WST-1, OD450 nm", "result": 44.4, "unit": "%"}, {"measurement": "viability at 10 µM", "setting": "[2]; read-out: cell viability (survival rate), A375, drug 10 μM, 72 hours, WST-1, OD450 nm", "result": 44.9, "unit": "%"}, {"measurement": "viability at 10 µM", "setting": "[3]", "result": 73.6, "unit": "%"}, {"measurement": "viability at 10 µM", "setting": "[4]; read-out: cell viability (survival rate), A549, drug 10 μM, 72 hours, WST-1, OD450 nm", "result": 50.7, "unit": "%"}, {"measurement": "viability at 10 µM", "setting": "[5]; read-out: cell viability (survival rate), AGS, drug 10 μM, 72 hours, WST-1, OD450 nm", "result": 83.1, "unit": "%"}, {"measurement": "viability at 10 µM", "setting": "[6]; read-out: cell viability (survival rate), H1650, drug 10 μM, 72 hours, WST-1, OD450 nm", "result": 63.4, "unit": "%"}, {"measurement": "viability at 10 µM", "setting": "[7]; read-out: cell viability (survival rate), HeLa, drug 10 μM, 72 hours, WST-1, OD450 nm", "result": 62.1, "unit": "%"}, {"measurement": "viability at 10 µM", "setting": "[8]; read-out: cell viability (survival rate), HepG2, drug 10 μM, 72 hours, WST-1, OD450 nm", "result": 88.2, "unit": "%"}, {"measurement": "viability at 10 µM", "setting": "[9]; read-out: cell viability (survival rate), HL-60, drug 10 μM, 72 hours, WST-1, OD450 nm", "result": 64.1, "unit": "%"}, {"measurement": "viability at 10 µM", "setting": "[10]; read-out: cell viability (survival rate), PC3, drug 10 μM, 72 hours, WST-1, OD450 nm", "result": 65.7, "unit": "%"}, {"measurement": "viability at 10 µM", "setting": "[11]; read-out: cell viability (survival rate), TSGH, drug 10 μM, 72 hours, WST-1, OD450 nm", "result": 55, "unit": "%"}, {"measurement": "viability at 10 µM", "setting": "[12]; read-out: cell viability (survival rate), MKN-45, drug 10 μM, 72 hours, WST-1, OD450 nm", "result": 53.2, "unit": "%"}]}, {"molecule": "CN(C/C=C/C#CC(C)(C)C)Cc1cccc2ccccc12", "note": "[Terbinafine (Lamisil, Terbinex), Terbinafine]", "values": [{"measurement": "viability at 10 µM", "setting": "[1]; drug 10 μM, 72 hours, WST-1, OD450 nm, read-out: cell viability (survival rate), MCF7", "result": 104, "unit": "%"}, {"measurement": "viability at 10 µM", "setting": "[2]; drug 10 μM, 72 hours, WST-1, OD450 nm, read-out: cell viability (survival rate), A375", "result": 99.7, "unit": "%"}, {"measurement": "viability at 10 µM", "setting": "[3]", "result": 94, "unit": "%"}, {"measurement": "viability at 10 µM", "setting": "[4]; drug 10 μM, 72 hours, WST-1, OD450 nm, read-out: cell viability (survival rate), A549", "result": 115, "unit": "%"}, {"measurement": "viability at 10 µM", "setting": "[5]; drug 10 μM, 72 hours, WST-1, OD450 nm, read-out: cell viability (survival rate), AGS", "result": 137, "unit": "%"}, {"measurement": "viability at 10 µM", "setting": "[6]; drug 10 μM, 72 hours, WST-1, OD450 nm, read-out: cell viability (survival rate), H1650", "result": 104, "unit": "%"}, {"measurement": "viability at 10 µM", "setting": "[7]; drug 10 μM, 72 hours, WST-1, OD450 nm, read-out: cell viability (survival rate), HeLa", "result": 65.2, "unit": "%"}, {"measurement": "viability at 10 µM", "setting": "[8]; drug 10 μM, 72 hours, WST-1, OD450 nm, read-out: cell viability (survival rate), HepG2", "result": 98.3, "unit": "%"}, {"measurement": "viability at 10 µM", "setting": "[9]; drug 10 μM, 72 hours, WST-1, OD450 nm, read-out: cell viability (survival rate), HL-60", "result": 95.2, "unit": "%"}, {"measurement": "viability at 10 µM", "setting": "[10]; drug 10 μM, 72 hours, WST-1, OD450 nm, read-out: cell viability (survival rate), PC3", "result": 140, "unit": "%"}, {"measurement": "viability at 10 µM", "setting": "[11]; drug 10 μM, 72 hours, WST-1, OD450 nm, read-out: cell viability (survival rate), TSGH", "result": 109, "unit": "%"}, {"measurement": "viability at 10 µM", "setting": "[12]; drug 10 μM, 72 hours, WST-1, OD450 nm, read-out: cell viability (survival rate), MKN-45", "result": 143, "unit": "%"}]}]}
